Measured values: PubChem BioAssay AID256 (DTP/NCI, 2004)
Values joined by “and” are separate entries in the source; they are usually repeats but may differ in a detail not shown here. Equal entries are not always repeated. Inconclusive results and toxic doses are left out.

Test system: CD2F1 mice, L1210 leukemia ip, survival T/C
Assay: NCI In Vivo Anticancer Drug Screen. Data for tumor model L1210 Leukemia (intraperitoneal) in CD2F1 (CDF1) mice
Settings: higher = longer survival
How it was run: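 Compound-dosed mice with transplantable tumor versus matched vehicle controls; endpoint ratio T/C reported.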

NC(CSC(c1ccccc1)(c1ccccc1)c1ccccc1)C(=O)O (stereo unspecified)
T/C (endpoint: mean survival time, dose: 0.48 mg/kg/injection, schedule: Q03HX024 (oral), vehicle: saline): 103 % of control | T/C (endpoint: mean survival time, dose: 0.94 mg/kg/injection, schedule: Q03HX024 (oral), vehicle: saline): 105 % of control | T/C (endpoint: mean survival time, dose: 1.88 mg/kg/injection, schedule: Q03HX008 (oral), vehicle: saline): 109 % of control | T/C (endpoint: mean survival time, dose: 1.88 mg/kg/injection, schedule: Q03HX024 (oral), vehicle: saline): 109 % of control | T/C (endpoint: mean survival time, dose: 3.9 mg/kg/injection, schedule: Q04DX003 (ip), vehicle: water): 102 % of control | T/C (endpoint: mean survival time, dose: 5.0 mg/kg/injection, schedule: Q03HX024 (ip), vehicle: water): 122 % of control and 106 % of control | T/C (endpoint: mean survival time, dose: 5.9 mg/kg/injection, schedule: Q04DX003 (ip), vehicle: water): 102 % of control | T/C (endpoint: mean survival time, dose: 6.25 mg/kg/injection, schedule: Q01DX009 (sc), vehicle: saline): 101 % of control | T/C (endpoint: mean survival time, dose: 8.8 mg/kg/injection, schedule: Q04DX003 (ip), vehicle: water): 103 % of control | T/C (endpoint: mean survival time, dose: 10.0 mg/kg/injection, schedule: Q01DX009 (ip), vehicle: water): 112 % of control | T/C (endpoint: mean survival time, dose: 10.0 mg/kg/injection, schedule: Q03HX008 (ip), vehicle: water): 120 % of control | T/C (endpoint: mean survival time, dose: 10.0 mg/kg/injection, schedule: Q03HX016 (ip), vehicle: water): 114 % of control | T/C (endpoint: mean survival time, dose: 10.0 mg/kg/injection, schedule: Q03HX024 (ip), vehicle: clinical formulation): 103 % of control | T/C (endpoint: mean survival time, dose: 10.0 mg/kg/injection, schedule: Q03HX024 (ip), vehicle: saline): 112 % of control | T/C (endpoint: mean survival time, dose: 10.0 mg/kg/injection, schedule: Q03HX024 (ip), vehicle: water): 151 % of control | T/C (endpoint: mean survival time, dose: 12.5 mg/kg/injection, schedule: Q01DX009 (sc), vehicle: saline): 107 % of control | T/C (endpoint: mean survival time, dose: 13.2 mg/kg/injection, schedule: Q04DX003 (ip), vehicle: water): 123 % of control | T/C (endpoint: mean survival time, dose: 15.0 mg/kg/injection, schedule: Q01DX005 (oral), vehicle: saline): 98 % of control | T/C (endpoint: mean survival time, dose: 15.0 mg/kg/injection, schedule: Q01DX009 (oral), vehicle: saline): 116 % of control | T/C (endpoint: mean survival time, dose: 15.0 mg/kg/injection, schedule: Q03HX008 (oral), vehicle: saline): 155 % of control | T/C (endpoint: mean survival time, dose: 15.0 mg/kg/injection, schedule: Q03HX024 (oral), vehicle: saline): 115 % of control | T/C (endpoint: mean survival time, dose: 20.0 mg/kg/injection, schedule: Q01DX009 (sc), vehicle: water): 123 % of control | T/C (endpoint: mean survival time, dose: 20.0 mg/kg/injection, schedule: Q03HX008 (ip), vehicle: water): 123 % of control | T/C (endpoint: mean survival time, dose: 20.0 mg/kg/injection, schedule: Q03HX024 (ip), vehicle: clinical formulation): 108 % of control | T/C (endpoint: mean survival time, dose: 20.0 mg/kg/injection, schedule: Q03HX024 (ip), vehicle: saline): 116 % of control | T/C (endpoint: mean survival time, dose: 20.0 mg/kg/injection, schedule: Q04DX003 (ip), vehicle: water): 123 % of control | T/C (endpoint: mean survival time, dose: 30.0 mg/kg/injection, schedule: Q01DX005 (oral), vehicle: saline): 100 % of control | T/C (endpoint: mean survival time, dose: 30.0 mg/kg/injection, schedule: Q01DX009 (oral), vehicle: saline): 106 % of control | T/C (endpoint: mean survival time, dose: 30.0 mg/kg/injection, schedule: Q04DX003 (oral), vehicle: saline): 101 % of control | T/C (endpoint: mean survival time, dose: 40.0 mg/kg/injection, schedule: Q03HX024 (ip), vehicle: clinical formulation): 121 % of control | T/C (endpoint: mean survival time, dose: 40.0 mg/kg/injection, schedule: Q03HX024 (ip), vehicle: water): 92 % of control | T/C (endpoint: mean survival time, dose: 45.0 mg/kg/injection, schedule: Q04DX003 (ip), vehicle: water): 114 % of control | T/C (endpoint: mean survival time, dose: 50.0 mg/kg/injection, schedule: Q01DX001 (sc), vehicle: saline): 120 % of control | T/C (endpoint: mean survival time, dose: 60.0 mg/kg/injection, schedule: Q01DX005 (oral), vehicle: saline): 111 % of control | T/C (endpoint: mean survival time, dose: 60.0 mg/kg/injection, schedule: Q04DX003 (oral), vehicle: saline): 106 % of control | T/C (endpoint: mean survival time, dose: 80.0 mg/kg/injection, schedule: Q01DX001 (ip), vehicle: water): 104 % of control | T/C (endpoint: mean survival time, dose: 80.0 mg/kg/injection, schedule: Q01DX009 (oral), vehicle: water): 157 % of control | T/C (endpoint: mean survival time, dose: 80.0 mg/kg/injection, schedule: Q03HX024 (ip), vehicle: clinical formulation): 150 % of control | T/C (endpoint: mean survival time, dose: 80.0 mg/kg/injection, schedule: Q03HX024 (ip), vehicle: saline): 154 % of control | T/C (endpoint: mean survival time, dose: 80.0 mg/kg/injection, schedule: Q04DX003 (ip), vehicle: water): 121 % of control | T/C (endpoint: mean survival time, dose: 80.0 mg/kg/injection, schedule: Q08DX002 (ip), vehicle: saline): 102 % of control | T/C (endpoint: mean survival time, dose: 100.0 mg/kg/injection, schedule: Q01DX001 (sc), vehicle: saline): 115 % of control | T/C (endpoint: mean survival time, dose: 120.0 mg/kg/injection, schedule: Q01DX001 (oral), vehicle: saline): 102 % of control | T/C (endpoint: mean survival time, dose: 120.0 mg/kg/injection, schedule: Q01DX005 (oral), vehicle: saline): 123 % of control | T/C (endpoint: mean survival time, dose: 120.0 mg/kg/injection, schedule: Q04DX003 (oral), vehicle: saline): 108 % of control | T/C (endpoint: mean survival time, dose: 160.0 mg/kg/injection, schedule: Q01DX001 (oral), vehicle: water): 115 % of control | T/C (endpoint: mean survival time, dose: 160.0 mg/kg/injection, schedule: Q03HX024 (ip), vehicle: clinical formulation): 152 % of control | T/C (endpoint: mean survival time, dose: 160.0 mg/kg/injection, schedule: Q03HX024 (ip), vehicle: saline): 234 % of control | T/C (endpoint: mean survival time, dose: 200.0 mg/kg/injection, schedule: Q01DX009 (sc), vehicle: saline): 86 % of control | T/C (endpoint: mean survival time, dose: 240.0 mg/kg/injection, schedule: Q01DX001 (oral), vehicle: saline): 107 % of control | T/C (endpoint: mean survival time, dose: 240.0 mg/kg/injection, schedule: Q01DX009 (oral), vehicle: saline): 103 % of control | T/C (endpoint: mean survival time, dose: 240.0 mg/kg/injection, schedule: Q04DX003 (oral), vehicle: saline): 111 % of control | T/C (endpoint: mean survival time, dose: 320.0 mg/kg/injection, schedule: Q03HX024 (ip), vehicle: saline): 86 % of control | T/C (endpoint: mean survival time, dose: 400.0 mg/kg/injection, schedule: Q01DX001 (sc), vehicle: saline): 108 % of control | T/C (endpoint: mean survival time, dose: 480.0 mg/kg/injection, schedule: Q01DX001 (oral), vehicle: saline): 107 % of control | T/C (endpoint: mean survival time, dose: 480.0 mg/kg/injection, schedule: Q01DX005 (oral), vehicle: saline): 97 % of control | T/C (endpoint: mean survival time, dose: 480.0 mg/kg/injection, schedule: Q01DX009 (oral), vehicle: saline): 96 % of control | T/C (endpoint: mean survival time, dose: 640.0 mg/kg/injection, schedule: Q01DX001 (oral), vehicle: water): 108 % of control | T/C (endpoint: mean survival time, dose: 640.0 mg/kg/injection, schedule: Q01DX001 (sc), vehicle: water): 180 % of control | T/C (endpoint: mean survival time, dose: 800.0 mg/kg/injection, schedule: Q01DX001 (sc), vehicle: saline): 106 % of control | T/C (endpoint: mean survival time, dose: 960.0 mg/kg/injection, schedule: Q04DX003 (oral), vehicle: saline): 150 % of control | T/C (endpoint: median survival time, dose: 3.9 mg/kg/injection, schedule: Q01DX009 (ip), vehicle: clinical formulation): 91 % of control | T/C (endpoint: median survival time, dose: 5.0 mg/kg/injection, schedule: Q03HX024 (ip), vehicle: water): 111 % of control | T/C (endpoint: median survival time, dose: 7.8 mg/kg/injection, schedule: Q01DX009 (ip), vehicle: clinical formulation): 94 % of control | T/C (endpoint: median survival time, dose: 10.0 mg/kg/injection, schedule: Q01DX009 (ip), vehicle: water): 88 % of control | T/C (endpoint: median survival time, dose: 10.0 mg/kg/injection, schedule: Q03HX024 (ip), vehicle: water): 122 % of control | T/C (endpoint: median survival time, dose: 10.0 mg/kg/injection, schedule: Q04DX003 (ip), vehicle: water): 111 % of control | T/C (endpoint: median survival time, dose: 15.6 mg/kg/injection, schedule: Q01DX009 (ip), vehicle: clinical formulation): 121 % of control | T/C (endpoint: median survival time, dose: 20.0 mg/kg/injection, schedule: Q01DX009 (oral), vehicle: water): 111 % of control | T/C (endpoint: median survival time, dose: 20.0 mg/kg/injection, schedule: Q03HX024 (ip), vehicle: water): 150 % of control | T/C (endpoint: median survival time, dose: 20.0 mg/kg/injection, schedule: Q04DX003 (ip), vehicle: water): 88 % of control | T/C (endpoint: median survival time, dose: 31.3 mg/kg/injection, schedule: Q01DX009 (ip), vehicle: clinical formulation): 118 % of control | T/C (endpoint: median survival time, dose: 31.3 mg/kg/injection, schedule: Q01DX009 (oral), vehicle: clinical formulation): 121 % of control | T/C (endpoint: median survival time, dose: 31.3 mg/kg/injection, schedule: Q03HX008 (oral), vehicle: clinical formulation): 121 % of control | T/C (endpoint: median survival time, dose: 31.3 mg/kg/injection, schedule: Q03HX024 (oral), vehicle: clinical formulation): 88 % of control | T/C (endpoint: median survival time, dose: 40.0 mg/kg/injection, schedule: Q01DX009 (ip), vehicle: water): 88 % of control | T/C (endpoint: median survival time, dose: 40.0 mg/kg/injection, schedule: Q01DX009 (oral), vehicle: water): 111 % of control | T/C (endpoint: median survival time, dose: 40.0 mg/kg/injection, schedule: Q04DX003 (ip), vehicle: water): 88 % of control | T/C (endpoint: median survival time, dose: 62.5 mg/kg/injection, schedule: Q03HX008 (oral), vehicle: clinical formulation): 164 % of control | T/C (endpoint: median survival time, dose: 62.5 mg/kg/injection, schedule: Q03HX016 (oral), vehicle: clinical formulation): 90 % of control | T/C (endpoint: median survival time, dose: 80.0 mg/kg/injection, schedule: Q04DX003 (ip), vehicle: water): 105 % of control | T/C (endpoint: median survival time, dose: 125.0 mg/kg/injection, schedule: Q01DX009 (oral), vehicle: clinical formulation): 114 % of control | T/C (endpoint: median survival time, dose: 125.0 mg/kg/injection, schedule: Q03HX016 (oral), vehicle: clinical formulation): 90 % of control | T/C (endpoint: median survival time, dose: 125.0 mg/kg/injection, schedule: Q04DX003 (oral), vehicle: clinical formulation): 151 % of control | T/C (endpoint: median survival time, dose: 160.0 mg/kg/injection, schedule: Q01DX009 (oral), vehicle: water): 116 % of control | T/C (endpoint: median survival time, dose: 250.0 mg/kg/injection, schedule: Q01DX001 (oral), vehicle: clinical formulation): 119 % of control | T/C (endpoint: median survival time, dose: 250.0 mg/kg/injection, schedule: Q04DX003 (oral), vehicle: clinical formulation): 184 % of control | T/C (endpoint: median survival time, dose: 250.0 mg/kg/injection, schedule: Q08DX002 (oral), vehicle: clinical formulation): 151 % of control | T/C (endpoint: median survival time, dose: 500.0 mg/kg/injection, schedule: Q01DX001 (oral), vehicle: clinical formulation): 98 % of control | T/C (endpoint: median survival time, dose: 500.0 mg/kg/injection, schedule: Q04DX003 (oral), vehicle: clinical formulation): 98 % of control | T/C (endpoint: median survival time, dose: 500.0 mg/kg/injection, schedule: Q08DX002 (oral), vehicle: clinical formulation): 191 % of control
